Results taken from ChEMBL document CHEMBL4265887 (Bioorg Med Chem Lett, 2018).
pIC50: −log10 of the molar value. Calls of active or inactive are those of the source. The rule behind the calls is not given here.

Key:
HCT-116 [1] = assay: Induction of apoptosis in human HCT116 cells at 1 uM after 72 hrs by Annexin V-FITC/propidium iodide staining-based flow cytometric analysis; assay type: functional, cell-based
[2] = molecular target: CDK2/Cyclin A2 (Homo sapiens) (UniProt P24941+P20248); assay: Inhibition of CDK2/cyclin A (unknown origin) at 10 uM; assay type: protein-complex assay
HCT-116 [3] = assay: Synergistic cytotoxicity against human HCT116 cells assessed as reduction in cell viability by measuring combination index at 1:1 compound to erlotinib ratio after 48 hrs by MTT assay; assay type: functional
[4] = molecular target: Mast/stem cell growth factor receptor Kit (Homo sapiens) (UniProt P10721); assay: Inhibition of c-KIT (unknown origin) at 10 uM
[5] = molecular target: Receptor tyrosine-protein kinase erbB-2 (Homo sapiens) (UniProt P04626); assay: Inhibition of ErbB2 (unknown origin) at 10 uM
[6] = molecular target: RAC-alpha serine/threonine-protein kinase (Homo sapiens) (UniProt P31749); assay: Inhibition of AKT1 (unknown origin) at 10 uM
[7] = molecular target: Hepatocyte growth factor receptor (Homo sapiens) (UniProt P08581); assay: Inhibition of c-MET (unknown origin) at 10 uM
Aurora kinase A = molecular target: T1, Aurora kinase A (Homo sapiens, UniProt O14965); assay: Inhibition of recombinant Aurora A (unknown origin) using TAMRA-PKAtide as substrate after 30 mins by fluorescence polarization assay
T1 sequence (O14965 whole entry): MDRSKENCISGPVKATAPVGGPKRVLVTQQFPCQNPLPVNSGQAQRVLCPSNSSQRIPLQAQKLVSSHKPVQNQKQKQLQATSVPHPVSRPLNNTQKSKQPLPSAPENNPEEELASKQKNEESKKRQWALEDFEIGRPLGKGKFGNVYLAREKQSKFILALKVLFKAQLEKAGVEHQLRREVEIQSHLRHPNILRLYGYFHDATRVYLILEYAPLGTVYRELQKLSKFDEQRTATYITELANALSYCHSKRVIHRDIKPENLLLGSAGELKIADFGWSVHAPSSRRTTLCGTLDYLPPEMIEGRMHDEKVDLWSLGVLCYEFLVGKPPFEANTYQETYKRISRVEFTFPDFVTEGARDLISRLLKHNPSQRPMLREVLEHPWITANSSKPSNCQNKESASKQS

[8] = molecular target: Tyrosine-protein kinase ABL1 (Homo sapiens) (UniProt P00519); assay: Inhibition of ABL (unknown origin) at 10 uM
HCT-116 [9] = assay: Synergistic cytotoxicity against human HCT116 cells assessed as reduction in cell viability by measuring combination index at 1:1 compound to trichostatin A ratio after 48 hrs by MTT assay; assay type: functional
HT-29 [10] = assay: Synergistic cytotoxicity against human HT-29 cells assessed as reduction in cell viability by measuring combination index at 1:1 compound to lonafarnib ratio after 48 hrs by MTT assay; assay type: functional
Aurora kinase B = Aurora kinase B (Homo sapiens, UniProt Q96GD4); assay: Inhibition of recombinant Aurora B (unknown origin) using TAMRA-PKAtide as substrate after 1 hr by fluorescence polarization assay
[11] = molecular target: Angiopoietin-1 receptor (Homo sapiens) (UniProt Q02763); assay: Inhibition of TIE2 (unknown origin) at 10 uM
[12] = molecular target: Cyclin-dependent kinase 4/cyclin D1 (Homo sapiens) (UniProt P11802+P24385); assay: Inhibition of CDK4/Cyclin D1 (unknown origin) at 10 uM; assay type: protein-complex assay
HT-29 [13] = assay: Synergistic cytotoxicity against human HT-29 cells assessed as reduction in cell viability by measuring combination index at 1:1 compound to erlotinib ratio after 48 hrs by MTT assay; assay type: functional

Sequence of Angiopoietin-1 receptor (Homo sapiens) (Q02763 whole entry): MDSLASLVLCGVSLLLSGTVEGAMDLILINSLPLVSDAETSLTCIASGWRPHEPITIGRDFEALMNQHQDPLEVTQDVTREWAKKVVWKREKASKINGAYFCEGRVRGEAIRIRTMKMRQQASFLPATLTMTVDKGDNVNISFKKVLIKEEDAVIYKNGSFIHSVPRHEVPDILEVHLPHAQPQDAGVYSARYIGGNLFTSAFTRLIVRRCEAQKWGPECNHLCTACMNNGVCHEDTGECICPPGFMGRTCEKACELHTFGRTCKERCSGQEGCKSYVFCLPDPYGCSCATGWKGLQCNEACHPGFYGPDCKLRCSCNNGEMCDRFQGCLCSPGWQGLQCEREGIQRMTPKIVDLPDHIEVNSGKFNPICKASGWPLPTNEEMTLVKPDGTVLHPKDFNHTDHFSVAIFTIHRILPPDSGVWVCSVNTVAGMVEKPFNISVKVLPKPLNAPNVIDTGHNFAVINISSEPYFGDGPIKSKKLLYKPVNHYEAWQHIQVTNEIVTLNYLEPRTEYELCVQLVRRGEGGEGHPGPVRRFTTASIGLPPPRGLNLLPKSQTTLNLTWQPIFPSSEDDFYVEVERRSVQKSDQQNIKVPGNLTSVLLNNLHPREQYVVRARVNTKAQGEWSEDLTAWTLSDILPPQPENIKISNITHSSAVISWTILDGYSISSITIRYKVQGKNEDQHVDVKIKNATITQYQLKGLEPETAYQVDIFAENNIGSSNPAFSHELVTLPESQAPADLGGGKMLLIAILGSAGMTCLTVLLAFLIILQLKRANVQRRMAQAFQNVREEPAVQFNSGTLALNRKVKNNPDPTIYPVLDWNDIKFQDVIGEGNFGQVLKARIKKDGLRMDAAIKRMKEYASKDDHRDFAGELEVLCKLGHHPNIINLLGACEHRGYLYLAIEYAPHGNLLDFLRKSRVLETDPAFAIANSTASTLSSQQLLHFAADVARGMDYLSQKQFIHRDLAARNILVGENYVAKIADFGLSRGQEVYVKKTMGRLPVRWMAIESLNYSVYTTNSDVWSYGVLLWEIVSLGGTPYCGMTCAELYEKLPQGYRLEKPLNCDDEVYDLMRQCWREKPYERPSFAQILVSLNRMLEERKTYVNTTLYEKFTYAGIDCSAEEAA
Sequence of Tyrosine-protein kinase ABL1 (Homo sapiens) (P00519 whole entry): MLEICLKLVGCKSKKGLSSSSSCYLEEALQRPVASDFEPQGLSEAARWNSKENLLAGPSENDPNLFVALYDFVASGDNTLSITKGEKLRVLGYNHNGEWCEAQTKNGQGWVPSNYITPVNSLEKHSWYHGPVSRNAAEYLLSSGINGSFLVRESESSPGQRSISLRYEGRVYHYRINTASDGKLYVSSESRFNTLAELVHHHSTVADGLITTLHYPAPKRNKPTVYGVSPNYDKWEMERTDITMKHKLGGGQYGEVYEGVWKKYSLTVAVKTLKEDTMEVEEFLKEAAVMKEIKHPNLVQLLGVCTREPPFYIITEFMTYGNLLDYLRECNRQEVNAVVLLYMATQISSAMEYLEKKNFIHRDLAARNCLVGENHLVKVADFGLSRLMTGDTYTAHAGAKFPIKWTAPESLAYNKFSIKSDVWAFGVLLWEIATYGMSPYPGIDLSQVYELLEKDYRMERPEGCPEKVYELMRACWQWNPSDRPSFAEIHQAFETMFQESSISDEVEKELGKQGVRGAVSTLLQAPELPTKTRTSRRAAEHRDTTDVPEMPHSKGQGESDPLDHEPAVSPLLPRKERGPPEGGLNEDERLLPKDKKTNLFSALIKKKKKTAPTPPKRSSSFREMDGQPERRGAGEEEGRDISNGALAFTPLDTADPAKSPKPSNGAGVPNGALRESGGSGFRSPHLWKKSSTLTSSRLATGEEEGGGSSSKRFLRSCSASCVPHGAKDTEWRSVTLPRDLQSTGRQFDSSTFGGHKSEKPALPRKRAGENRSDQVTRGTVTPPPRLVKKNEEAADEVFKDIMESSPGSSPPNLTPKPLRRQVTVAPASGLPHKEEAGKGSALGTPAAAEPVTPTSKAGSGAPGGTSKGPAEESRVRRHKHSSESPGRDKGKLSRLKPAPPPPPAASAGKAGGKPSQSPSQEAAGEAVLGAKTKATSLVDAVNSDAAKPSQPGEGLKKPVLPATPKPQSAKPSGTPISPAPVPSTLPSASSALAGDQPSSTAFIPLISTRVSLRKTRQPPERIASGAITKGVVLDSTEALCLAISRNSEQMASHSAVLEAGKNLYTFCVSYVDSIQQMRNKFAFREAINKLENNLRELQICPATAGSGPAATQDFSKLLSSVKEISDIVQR
Sequence of Aurora kinase B (Q96GD4 whole entry): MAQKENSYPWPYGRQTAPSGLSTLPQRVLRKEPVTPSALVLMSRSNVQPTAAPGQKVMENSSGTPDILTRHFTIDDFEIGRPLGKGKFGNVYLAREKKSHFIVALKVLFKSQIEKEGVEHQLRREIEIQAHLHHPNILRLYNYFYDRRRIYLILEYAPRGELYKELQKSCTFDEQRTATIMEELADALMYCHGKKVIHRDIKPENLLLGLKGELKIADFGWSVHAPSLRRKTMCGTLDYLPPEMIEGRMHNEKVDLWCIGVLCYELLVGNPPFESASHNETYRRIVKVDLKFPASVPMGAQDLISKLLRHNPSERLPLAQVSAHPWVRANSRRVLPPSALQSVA
Sequence of RAC-alpha serine/threonine-protein kinase (Homo sapiens) (P31749 whole entry): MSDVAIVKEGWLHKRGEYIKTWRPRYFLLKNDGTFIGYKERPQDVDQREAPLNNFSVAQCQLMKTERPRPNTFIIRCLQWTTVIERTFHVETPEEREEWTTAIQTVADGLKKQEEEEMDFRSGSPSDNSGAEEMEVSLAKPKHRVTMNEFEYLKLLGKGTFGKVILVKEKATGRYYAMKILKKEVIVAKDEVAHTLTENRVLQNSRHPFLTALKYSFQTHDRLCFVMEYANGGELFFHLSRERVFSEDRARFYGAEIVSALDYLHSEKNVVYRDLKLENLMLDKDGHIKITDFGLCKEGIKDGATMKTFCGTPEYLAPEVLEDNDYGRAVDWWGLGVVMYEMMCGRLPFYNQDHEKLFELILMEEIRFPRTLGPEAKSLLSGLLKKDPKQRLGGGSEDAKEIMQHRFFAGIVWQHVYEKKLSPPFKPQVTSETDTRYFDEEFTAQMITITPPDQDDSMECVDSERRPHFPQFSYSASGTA
Sequence of Mast/stem cell growth factor receptor Kit (Homo sapiens) (P10721 whole entry): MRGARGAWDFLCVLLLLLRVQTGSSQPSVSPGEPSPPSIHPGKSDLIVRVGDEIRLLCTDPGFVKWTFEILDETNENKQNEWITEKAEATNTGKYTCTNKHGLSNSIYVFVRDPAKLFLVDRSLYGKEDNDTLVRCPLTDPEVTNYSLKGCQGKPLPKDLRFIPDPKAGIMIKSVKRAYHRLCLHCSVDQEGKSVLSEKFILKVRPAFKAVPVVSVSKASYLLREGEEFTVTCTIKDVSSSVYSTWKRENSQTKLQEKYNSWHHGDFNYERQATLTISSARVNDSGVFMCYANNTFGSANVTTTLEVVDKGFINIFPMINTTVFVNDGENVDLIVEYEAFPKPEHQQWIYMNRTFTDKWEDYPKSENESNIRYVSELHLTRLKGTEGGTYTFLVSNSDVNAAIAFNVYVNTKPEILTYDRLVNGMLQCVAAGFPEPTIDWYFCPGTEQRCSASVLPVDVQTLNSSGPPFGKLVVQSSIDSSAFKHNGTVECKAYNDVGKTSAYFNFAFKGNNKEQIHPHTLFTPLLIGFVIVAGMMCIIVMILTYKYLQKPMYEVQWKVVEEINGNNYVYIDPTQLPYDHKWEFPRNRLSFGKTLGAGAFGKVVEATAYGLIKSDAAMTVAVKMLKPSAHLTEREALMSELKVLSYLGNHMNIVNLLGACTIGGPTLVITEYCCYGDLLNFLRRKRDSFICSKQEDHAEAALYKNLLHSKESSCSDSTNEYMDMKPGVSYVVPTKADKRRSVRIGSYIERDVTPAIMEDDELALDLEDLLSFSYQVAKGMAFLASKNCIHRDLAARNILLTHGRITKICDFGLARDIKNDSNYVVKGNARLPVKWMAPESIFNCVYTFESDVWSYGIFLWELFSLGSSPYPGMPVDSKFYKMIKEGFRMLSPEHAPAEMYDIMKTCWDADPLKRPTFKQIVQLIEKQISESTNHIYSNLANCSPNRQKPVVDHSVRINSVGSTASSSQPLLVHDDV

Q: How did the Activity (HCT-116 [1]) turn out when CNC(=O)Nc1sc2c(C(C)C)cc(NS(=O)(=O)c3cccs3)cc2c1C(N)=O was run?
A: Its Activity is “Active”.

Q: And the inhibition [2]?
A: The inhibition was 33.9%.

Q: What about the CI (HCT-116 [3]) of the same compound?
A: The CI was 0.25.

Q: What about the inhibition [4] of the same compound?
A: The inhibition was 71.6%.

Q: What about the inhibition [5] of the same compound?
A: Its inhibition is 35.9%.

Q: What about the inhibition [6] of the same compound?
A: Its inhibition is 13.6%.

Q: And the inhibition [7]?
A: Its inhibition is 47.4%.

Q: And the pIC50 (Aurora kinase A)?
A: Its pIC50 is 7.49.

Q: What about the inhibition [8] of the same compound?
A: Its inhibition is 100%.

Q: And the CI (HCT-116 [9])?
A: The CI was 0.195.

Q: And the CI (HT-29 [10])?
A: Its CI is 0.198.

Q: What about the pIC50 (Aurora kinase B) of the same compound?
A: The pIC50 was 7.54.

Q: And the inhibition [11]?
A: Its inhibition is 35.7%.

Q: What about the inhibition [12] of the same compound?
A: The inhibition was 44.1%.

Q: What about the CI (HT-29 [13]) of the same compound?
A: The CI was 0.075.
